Experimental data published in patent US10323036B2 (Nimbus Lakshmi, Inc., priority 2016, dated 2019).
Like-named read-outs stand apart in the source and are kept apart here.

What was measured:
[1] = biological target: TYK2 JH1 kinase (Homo sapiens (Human), UniProt P29597); test: Tyk2 Radioactive Kinase Assay; format: biochemical; details: ATP at 10 μM
Experimental: (§1) Peptide substrate, [KKSRGDYMTMQIG (SEQ ID NO: 2)], (20 μM) is prepared in reaction buffer (20 mM Hepes pH 7.5, 10 mM MgCl2, 1 mM EGTA, 0.02% Brij35, 0.02 mg/mL BSA, […], 2 mM DTT, 1% DMSO. TYK2 (Invitrogen) kinase is added, followed by compounds in DMSO. 33PATP is added to initiate the reaction in ATP at 10 μM. Kinase reaction is incubated for 120 min at room temp and reactions are spotted onto P81 ion exchange paper (Whatman #3698-915), and then washed extensively in 0.75% phosphoric acid, prior to reading the radioactivity counts. For JAK2 (Invitrogen) kinase assay the peptide substrate poly[Glu:Tyr] (4:1), 0.2 mg/ml is used, in the reaction carried out the same as for TYK2.

[2] = biological target: human TYK2 (JH2domain-pseudokinase) (Homo sapiens (Human), UniProt P29597); test: TYK2 JH2 Domain Binding Assay (KINOMEscan)
Sequence of human TYK2 (JH2domain-pseudokinase) (P29597 556-888): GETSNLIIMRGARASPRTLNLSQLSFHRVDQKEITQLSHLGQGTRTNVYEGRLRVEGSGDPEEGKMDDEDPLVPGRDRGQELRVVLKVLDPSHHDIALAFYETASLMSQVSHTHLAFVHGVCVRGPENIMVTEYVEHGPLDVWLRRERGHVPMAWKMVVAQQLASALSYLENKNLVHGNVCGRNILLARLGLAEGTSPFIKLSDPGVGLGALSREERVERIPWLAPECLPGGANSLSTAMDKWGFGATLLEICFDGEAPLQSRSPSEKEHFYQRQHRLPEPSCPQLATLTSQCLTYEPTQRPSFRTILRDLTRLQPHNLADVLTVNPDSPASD

[3] = test system: GM-CSF induced pSTAT5; test: GM-CSF Induced pSTAT5 in Human PBMC; format: cell-based; details: 5 ng/mL GM-CSF, read-out: IC50 of inhibition of pSTAT5 production
Experimental: Cells are prepared for analysis as in the above procedure and 15 μl of GM-CSF (final concentration 5 ng/mL) is added for 20 minutes prior to pSTAT5 and total STAT5 analysis using cell lysates prepared and analyzed by MSD reagents as per manufacturer protocol. The final DMSO concentration of compound in the assay is 0.1%.

[4] = biological target: JAK2 JH1 kinase (Homo sapiens (Human), UniProt O60674); test: JAK2 Radioactive Kinase Assay; format: biochemical; details: ATP at 10 μM
Sequence of JAK2 JH1 kinase (O60674 808-1132): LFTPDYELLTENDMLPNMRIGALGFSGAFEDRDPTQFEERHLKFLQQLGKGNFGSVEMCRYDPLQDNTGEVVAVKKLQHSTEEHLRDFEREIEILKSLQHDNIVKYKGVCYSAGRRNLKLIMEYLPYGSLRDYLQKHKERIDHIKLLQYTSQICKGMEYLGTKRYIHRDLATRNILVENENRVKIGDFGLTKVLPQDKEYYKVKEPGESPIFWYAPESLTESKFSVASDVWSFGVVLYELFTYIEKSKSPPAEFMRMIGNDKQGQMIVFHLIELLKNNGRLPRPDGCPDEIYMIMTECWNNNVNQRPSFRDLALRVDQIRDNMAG
Experimental: as §1

[5] = Table 4, JH2 binding assay, read-out: JH2 Kd
[6] = Table 5, Tyk2 JH2 Domain Binding Assay, read-out: JH2 Kd
[7] = Tyk2 JH2 Domain Binding Assay, read-out: Kd

Sequence of TYK2 JH1 kinase (P29597 833-1187): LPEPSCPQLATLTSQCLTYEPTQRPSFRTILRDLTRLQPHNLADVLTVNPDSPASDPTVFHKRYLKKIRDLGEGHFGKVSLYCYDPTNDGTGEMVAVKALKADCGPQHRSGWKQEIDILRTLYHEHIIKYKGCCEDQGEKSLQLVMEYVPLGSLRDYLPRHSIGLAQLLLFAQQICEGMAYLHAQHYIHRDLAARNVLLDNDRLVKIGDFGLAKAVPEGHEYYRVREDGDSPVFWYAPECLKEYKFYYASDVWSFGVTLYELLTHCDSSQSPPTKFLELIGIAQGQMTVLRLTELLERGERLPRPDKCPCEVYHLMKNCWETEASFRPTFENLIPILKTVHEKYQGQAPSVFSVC

| Kd [2, 6] | SMILES | other results |
| --- | --- | --- |
| – | COc1c(Nc2cc(NC(=O)C3CC3)nc3[nH]n(C)c(=O)c23)cccc1-c1nnn(C)n1 [Compound I-1] | inhibitory activity against TYK2 JH1 kinase function [1]: no detectable inhibitory activity; Kd [2, 5]: < 0.1 nM |
| – | COCc1ccnc(Nc2cc(Nc3cccc(-c4nnn(C)n4)c3OC)c3c(=O)n(C)[nH]c3n2)c1 [Compound I-2, 4-((2-methoxy-3-(2-methyl-2H-tetrazol-5-yl)phenyl)amino)-6-((4-(methoxymethyl)pyridin-2-yl)amino)-2-methyl-1,2-dihydro-3H-pyrazolo[3,4-b]pyridin-3-one] | inhibitory activity against TYK2 JH1 kinase function [1]: no detectable inhibitory activity; Kd [2, 5]: 0.1 to 0.5 nM |
| 10 to 100 nM | COc1c(Nc2cc(NC(=O)C3CC3)ncc2-c2ncc(F)s2)cccc1-c1nnn(C)n1 [VIII-2, N-(5-(5-fluorothiazol-2-yl)-4-((2-methoxy-3-(2-methyl-2H-tetrazol-5-yl)phenyl)amino)pyridin-2-yl)cyclopropanecarboxamide] | inhibitory activity against TYK2 JH1 kinase function [1]: no detectable inhibitory activity; inhibitory activity against JAK2 JH1 kinase function [4]: no detectable inhibitory activity |
| 1 to 10 nM | COC(=O)c1nnc(-c2cnc(NC(=O)C3CC3)cc2Nc2cccc(-c3ncn(C)n3)c2OC)o1 [VIII-4, methyl 5-(6-(cyclopropanecarboxamido)-4-((2-methoxy-3-(1-methyl-1H-1,2,4-triazol-3-yl)phenyl)amino)pyridin-3-yl)-1,3,4-oxadiazole-2-carboxylate] | inhibitory activity against TYK2 JH1 kinase function [1]: no detectable inhibitory activity; inhibitory activity against JAK2 JH1 kinase function [4]: no detectable inhibitory activity |
| 0.1 to 1 nM | COc1c(Nc2cc(Nc3ccc(C)nn3)ncc2-c2nnc(CO)o2)cccc1-c1ncn(C)n1 [VIII-12, (5-(4-((2-methoxy-3-(1-methyl-1H-1,2,4-triazol-3-yl)phenyl)amino)-6-((6-methylpyridazin-3-yl)amino)pyridin-3-yl)-1,3,4-oxadiazol-2-yl)methanol] | – |
| 0.1 to 1 nM | COc1c(Nc2cc(Nc3cccc(C#N)n3)ncc2-c2nnc(CO)o2)cccc1-c1ncn(C)n1 [VIII-13, 6-((5-(5-(hydroxymethyl)-1,3,4-oxadiazol-2-yl)-4-((2-methoxy-3-(1-methyl-1H-1,2,4-triazol-3-yl)phenyl)amino)pyridin-2-yl)amino)picolinonitrile] | – |
| 0.1 to 1 nM | COc1c(Nc2cc(Nc3cc(C)nc(C)n3)ncc2-c2nnc(CO)o2)cccc1-c1ncn(C)n1 [VIII-14, (5-(6-((2,6-dimethylpyrimidin-4-yl)amino)-4-((2-methoxy-3-(1-methyl-1H-1,2,4-triazol-3-yl)phenyl)amino)pyridin-3-yl)-1,3,4-oxadiazol-2-yl)methanol] | – |
| 1 to 10 nM | COc1c(Nc2cc(Nc3cccc(C#N)n3)ncc2-c2ncc(Cl)s2)cccc1-c1nnn(C)n1 [VIII-15, 6-((5-(5-chlorothiazol-2-yl)-4-((2-methoxy-3-(2-methyl-2H-tetrazol-5-yl)phenyl)amino)pyridin-2-yl)amino)picolinonitrile] | – |
| 0.1 to 1 nM | COc1c(Nc2cc(Nc3ccc(C)nn3)ncc2-c2ncc(Cl)s2)cccc1-c1nnn(C)n1 [VIII-16, 5-(5-chlorothiazol-2-yl)-N4-(2-methoxy-3-(2-methyl-2H-tetrazol-5-yl)phenyl)-N2-(6-methylpyridazin-3-yl)pyridine-2,4-diamine] | – |
| 0.1 to 1 nM | COCc1ccnc(Nc2cc(Nc3cccc(-c4nnn(C)n4)c3OC)c(-c3ncc(Cl)s3)cn2)c1 [VIII-17, 5-(5-chlorothiazol-2-yl)-N4-(2-methoxy-3-(2-methyl-2H-tetrazol-5-yl)phenyl)-N2-(4-(methoxymethyl)pyridin-2-yl)pyridine-2,4-diamine] | – |
| 10 to 100 nM | CNc1nn(-c2cccc(-c3ncn(C)n3)c2OC)c2cc(NC(=O)C3CC3)ncc12 [XVI-1, N-(1-(2-methoxy-3-(1-methyl-1H-1,2,4-triazol-3-yl)phenyl)-3-(methylamino)-1H-pyrazolo[4,3-c]pyridin-6-yl)cyclopropanecarboxamide] | Kd [2, 7]: 7000 to 10000 nM |
| 0.1 to 1 nM | CCc1nn(-c2cccc(-c3nnn(C)n3)c2OC)c2cc(NC(=O)C3CC3)ncc12 [XVI-4, N-(3-ethyl-1-(2-methoxy-3-(2-methyl-2H-tetrazol-5-yl)phenyl)-1H-pyrazolo[4,3-c]pyridin-6-yl)cyclopropanecarboxamide] | – |
| 10 to 100 nM | CCn1nc(-c2cccc(-c3nnn(C)n3)c2OC)c2cc(NC(=O)C3CC3)ncc21 [XVI-5, N-(1-ethyl-3-(2-methoxy-3-(2-methyl-2H-tetrazol-5-yl)phenyl)-1H-pyrazolo[3,4-c]pyridin-5-yl)cyclopropanecarboxamide] | – |
| 10 to 100 nM | CCn1cc(-c2cccc(-c3nnn(C)n3)c2OC)c2cc(NC(=O)C3CC3)ncc21 [XVI-6, N-(1-ethyl-3-(2-methoxy-3-(2-methyl-2H-tetrazol-5-yl)phenyl)-1H-pyrrolo[2,3-c]pyridin-5-yl)cyclopropanecarboxamide] | – |

| SMILES | Kd [2, 6] | other results |
| --- | --- | --- |
| COc1c(Nc2cc(NC(=O)C3CC3)ncc2-c2ncc(Cl)s2)cccc1-c1nnn(C)n1 [VIII-1, N-(5-(5-chlorothiazol-2-yl)-4-((2-methoxy-3-(2-methyl-2H-tetrazol-5-yl)phenyl)amino)pyridin-2-yl)cyclopropanecarboxamide] | 1 to 10 nM | IC50 [3]: > 50000 nM |
| COc1c(Nc2cc(NC(=O)C3CC3)ncc2-c2nnc(C(F)(F)F)o2)cccc1-c1ncn(C)n1 [VIII-3, N-(4-((2-methoxy-3-(1-methyl-1H-1,2,4-triazol-3-yl)phenyl)amino)-5-(5-(trifluoromethyl)-1,3,4-oxadiazol-2-yl)pyridin-2-yl)cyclopropanecarboxamide] | > 100 nM | inhibitory activity against TYK2 JH1 kinase function [1]: no detectable inhibitory activity; inhibitory activity against JAK2 JH1 kinase function [4]: no detectable inhibitory activity |
| CNc1nc(-c2cccc(-c3nnn(C)n3)c2OC)n2cc(NC(=O)C3CC3)ncc12 [XVI-2] | > 100 nM | Kd [2, 7]: 10 to 185 nM |
| CNc1nn(-c2cccc(-c3nnn(C)n3)c2OC)c2cc(NC(=O)C3CC3)ncc12 [XVI-3, N-(1-(2-methoxy-3-(2-methyl-2H-tetrazol-5-yl)phenyl)-3-(methylamino)-1H-pyrazolo[4,3-c]pyridin-6-yl)cyclopropanecarboxamide] | > 100 nM | Kd [2, 7]: 7000 to 10000 nM |
